Reference: publication PMC3454380, “Chloroplast NADPH-Dependent Thioredoxin Reductase from Chlorella vulgaris Alleviates Environmental Stresses in Yeast Together with 2-Cys Peroxiredoxin” (PLoS ONE, 2012)

Tests used:
[1] = target: T1, His-mCvNTRC (mature C. vulgaris NTRC) (Chlorella vulgaris, UniProt B9ZYY5); assay: NADPH oxidation at […] nm, coupled to His-mCvPrx and peroxide; type: biochemical; details: 300 uM NADPH, 100 uM peroxide, 4.0 uM His-mCvNTRC, 4.0 uM His-mCvPrx, 1 mM EDTA, 50 mM Na-phosphate pH 7.0
T1 construct: gene CvNTR-C; mature form (NTR domain plus C-terminal Trx domain) without transit peptide, C-terminal His-tag, pET-29b(+), E. coli BL21(DE3)pLysS
T1 sequence (B9ZYY5 58-529): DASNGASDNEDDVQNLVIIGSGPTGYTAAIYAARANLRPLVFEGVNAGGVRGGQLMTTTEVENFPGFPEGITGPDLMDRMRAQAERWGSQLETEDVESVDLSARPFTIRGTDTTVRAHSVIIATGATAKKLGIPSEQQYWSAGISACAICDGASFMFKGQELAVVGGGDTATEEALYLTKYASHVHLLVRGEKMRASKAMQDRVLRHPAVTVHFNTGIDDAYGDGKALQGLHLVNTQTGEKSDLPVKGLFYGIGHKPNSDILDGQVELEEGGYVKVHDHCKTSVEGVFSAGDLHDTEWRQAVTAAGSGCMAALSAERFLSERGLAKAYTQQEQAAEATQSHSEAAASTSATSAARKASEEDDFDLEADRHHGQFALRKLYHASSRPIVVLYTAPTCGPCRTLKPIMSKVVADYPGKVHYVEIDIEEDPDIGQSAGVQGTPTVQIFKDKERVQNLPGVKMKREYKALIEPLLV

[2] = target: T2, His-mCvPrx (mature C. vulgaris 2-Cys Prx) (Chlorella vulgaris, UniProt K4PW22); assay: NADPH oxidation at […] nm, reconstituted with His-mCvNTRC; type: biochemical; details: 300 uM NADPH, 4.0 uM His-mCvPrx, 4.0 uM His-mCvNTRC as reductant, 1 mM EDTA, 50 mM Na-phosphate pH 7.0
T2 construct: mature form without predicted chloroplast transit peptide, bp 161-745 of cDNA, 194 residues of 239 (46-239 if ORF starts at bp 26); His-tagged, pTrc99A, E. coli JM109, five synonymous rare-codon changes
T2 sequence (K4PW22 46-239): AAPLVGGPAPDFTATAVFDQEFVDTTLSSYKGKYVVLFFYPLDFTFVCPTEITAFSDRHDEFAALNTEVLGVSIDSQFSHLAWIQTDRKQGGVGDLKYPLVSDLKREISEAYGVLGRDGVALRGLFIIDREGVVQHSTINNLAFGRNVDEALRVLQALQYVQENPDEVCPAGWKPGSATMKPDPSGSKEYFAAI

Q: Which specific activity [1] does the source give for `NC(=O)C1=CN([C@@H]2O[C@H](COP(=O)(O)OP(=O)(O)OC[C@H]3O[C@@H](n4cnc5c(N)ncnc54)[C@H](OP(=O)(O)O)[C@@H]3O)[C@@H](O)[C@H]2O)C=CC1` [NADPH] here?
A: the mCvNTRC/mCvPrx system used NADPH as a specific coenzyme to reduce peroxides

Q: `O=NOO` [peroxynitrite] was tested. Which specific activity ([2]; 100 uM peroxynitrite) did it give?
A: the mCvNTRC/mCvPrx antioxidant system could decompose ONOO^−

Q: `CC(C)(C)OO` [tert-butyl hydroperoxide] was tested. Which specific activity ([2]; 100 uM t-BOOH) did it give?
A: a remarkably high rate of NADPH oxidation against both H2O2 and t-BOOH
